Measured values reported in ChEMBL document CHEMBL3351354, “From the covalent linkage of drugs to novel inhibitors of ribonucleotide reductase: synthesis and biological evaluation of valproic esters of 3'-C-methyladenosine” (Bioorg Med Chem Lett, 2014).
Active and inactive are the calls of the source. No cut-off for these calls is given here.

Legend:
HeLa = experiment: Growth inhibition of human HeLa cells after 48 hrs by MTT assay; format: functional, cell-based; conditions: Homo sapiens, HeLa, 48 h; read-out: IC50
[1] = Growth inhibition of human Caco2 cells after 48 hrs by MTT assay; format: functional, cell-based, Caco-2; conditions: Homo sapiens, Caco-2, 48 h; read-out: IC50
HuT78 = experiment: Growth inhibition of human HUT78 cells after 48 hrs by MTT assay; format: functional, cell-based; conditions: Homo sapiens, HuT78, 48 h; read-out: IC50
HT-29 = experiment: Growth inhibition of human HT-29 cells after 48 hrs by MTT assay; format: functional, cell-based; conditions: Homo sapiens, HT-29, 48 h; read-out: IC50
HL-60 [2] = experiment: Induction of apoptosis in human HL60 cells after 24 to 48 hrs by acridine orange and ethidium bromide staining based fluorescence microscopy; format: functional, cell-based; conditions: hl-60
[3] = Growth inhibition of human HL60 cells after 48 hrs by MTT assay; format: functional, cell-based, HL-60; conditions: Homo sapiens, HL-60, 48 h; read-out: IC50
[4] = target: T1, Ribonucleotide reductase (Homo sapiens) (UniProt P23921+Q7LG56); experiment: Inhibition of ribonucleotide reductase in human HL60 cells assessed as intracellular dNTP pools level at 1.2 mM after 1 hr by HPLC method; format: cell-based; conditions: HL-60
K562 = experiment: Growth inhibition of human K562 cells after 48 hrs by MTT assay; format: functional, cell-based; conditions: Homo sapiens, K562, 48 h; read-out: IC50
[5] = Half life in pH 7.4 isotonic sodium phosphate buffer at 37 degC by HPLC-DAD-ESI-MS method; format: physicochemical
HL-60 [6] = experiment: Induction of cell cycle arrest in human HL60 cells assessed as accumulation at G2M phase at 1 mM after 24 hrs by propidium iodide staining based flow cytometry (reference value: 12%); format: functional
HL-60 [7] = experiment: Induction of cell cycle arrest in human HL60 cells assessed as accumulation at G1 phase at 1 mM after 24 hrs by propidium iodide staining based flow cytometry (reference value: 32%); format: functional
[8] = target: T1, Ribonucleotide reductase (Homo sapiens); experiment: Inhibition of human recombinant ribonucleotide reductase at 1.2 mM; format: protein-complex assay
HL-60 [9] = experiment: Induction of cell cycle arrest in human HL60 cells assessed as accumulation at S phase at 1 mM after 24 hrs by propidium iodide staining based flow cytometry (reference value: 54%); format: functional
[10] = Half life in RPMI-1640 medium containing 10% fetal calf serum assessed as compound disappearance by HPLC-DAD-ESI-MS method; format: ADME, Bos taurus; conditions: cattle
MCF7 = experiment: Growth inhibition of human MCF7 cells after 48 hrs by MTT assay; format: functional, cell-based; conditions: Homo sapiens, MCF7, 48 h; read-out: IC50

IC50 (HeLa): > 1000 µM | IC50 (HT-29): > 1000 µM | inhibition [4]: Active | IC50 (K562): 500 µM | half-life [5]: > 72 h | inhibition [8]: Active | half-life [10]: > 72 h | IC50 (MCF7): > 1000 µM
SMILES: CCCC(CCC)C(=O)O[C@H]1[C@H](n2cnc3c(N)ncnc32)O[C@H](CO)[C@@]1(C)O
IC50 [1]: > 1000 µM | IC50 (HuT78): 912 µM | AC50 (HL-60 [2]): Not Active | IC50 [3]: 650 µM | Activity (HL-60 [6]): 9% | Activity (HL-60 [7]): 51% | Activity (HL-60 [9]): 40%
